Data from paper PMC8025945 (Journal of medicinal chemistry, 2017).
Read-outs that look alike come from different tables or passages of the source. Values belong to the compound of their own block, whether it stands above or below them.

Experiments:
[1] = biological target: T1, recombinant Top1 (Homo sapiens, UniProt P11387); assay: Top1-mediated DNA cleavage assay; format: biochemical; settings: semiquantitative scale relative to 1 μM MJ-III-65 (6) and 1 μM camptothecin (1)
T1 sequence (P11387 1-765): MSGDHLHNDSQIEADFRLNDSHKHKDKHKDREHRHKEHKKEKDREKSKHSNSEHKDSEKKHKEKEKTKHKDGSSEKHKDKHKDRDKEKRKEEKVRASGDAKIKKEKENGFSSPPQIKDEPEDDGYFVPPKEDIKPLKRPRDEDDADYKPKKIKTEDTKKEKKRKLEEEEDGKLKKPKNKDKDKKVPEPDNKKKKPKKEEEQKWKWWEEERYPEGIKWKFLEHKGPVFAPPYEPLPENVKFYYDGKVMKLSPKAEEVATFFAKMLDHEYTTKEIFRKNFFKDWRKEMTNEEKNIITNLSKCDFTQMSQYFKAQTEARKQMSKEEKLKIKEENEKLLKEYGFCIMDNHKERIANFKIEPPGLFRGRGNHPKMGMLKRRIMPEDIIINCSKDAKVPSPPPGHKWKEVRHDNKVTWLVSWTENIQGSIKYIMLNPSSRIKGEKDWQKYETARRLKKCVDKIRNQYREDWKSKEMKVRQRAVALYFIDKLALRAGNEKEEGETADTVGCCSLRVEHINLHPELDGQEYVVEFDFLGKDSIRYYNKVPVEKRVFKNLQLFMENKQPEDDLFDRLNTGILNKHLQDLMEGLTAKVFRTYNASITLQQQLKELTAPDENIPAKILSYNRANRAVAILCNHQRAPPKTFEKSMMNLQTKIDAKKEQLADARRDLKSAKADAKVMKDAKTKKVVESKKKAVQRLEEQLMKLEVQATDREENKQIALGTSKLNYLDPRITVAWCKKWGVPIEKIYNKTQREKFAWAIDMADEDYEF

[2] = test system: SF-539; assay: NCI-60 human tumor cell line screen, CNS SF-539; settings: read-out: cytotoxicity (GI50) CNS SF-539; 50% growth inhibition
[3] = test system: HOP-62; assay: NCI-60 human tumor cell line screen, lung HOP-62; settings: read-out: cytotoxicity (GI50) lung HOP-62; 50% growth inhibition
[4] = test system: SN12C; assay: NCI-60 human tumor cell line screen, renal SN12C; settings: read-out: cytotoxicity (GI50) renal SN12C; 50% growth inhibition
[5] = test system: MCF-7; assay: NCI-60 human tumor cell line screen, breast MCF-7; settings: read-out: cytotoxicity (GI50) breast MCF-7; 50% growth inhibition
[6] = test system: HCT-116; assay: NCI-60 human tumor cell line screen, colon HCT-116; settings: read-out: cytotoxicity (GI50) colon HCT-116; 50% growth inhibition
[7] = test system: OVCAR-3; assay: NCI-60 human tumor cell line screen, ovarian OVCAR-3; settings: read-out: cytotoxicity (GI50) ovarian OVCAR-3; 50% growth inhibition
[8] = test system: DU-145; assay: NCI-60 human tumor cell line screen, prostate DU-145; settings: read-out: cytotoxicity (GI50) prostate DU-145; 50% growth inhibition
[9] = test system: UACC-62; assay: NCI-60 human tumor cell line screen, melanoma UACC-62; settings: read-out: cytotoxicity (GI50) melanoma UACC-62; 50% growth inhibition
[10] = test system: zebrafish embryos; settings: for lethality in zebrafish (comparison between compounds): statistical comparison of 9, 16b and 17b
[11] = test system: NCI-60 human tumor cell lines; assay: NCI-60 mean graph midpoint; settings: read-out: MGM GI50

Compound: COc1cnc2c(c1)C(=O)c1c-2n(CCCN2CCNCC2)c(=O)c2cc(Cl)ccc12 [16e, 3-Chloro-9-methoxy-6-(3-(piperazin-1-yl)propyl)-5H-pyrido[3′,2′:4,5]cyclopenta[1,2-c]isoquinoline-5,11(6H)-dione]
enzyme inhibitory activity Top1 (compound-induced DNA cleavage score) [1]: +

Compound: COc1cnc2c(c1)C(=O)c1c-2n(CCCNC(C)C)c(=O)c2cc(Cl)ccc12 [16f, 3-Chloro-9-methoxy-6-(3-(isopropylamino)propyl)-5H-pyrido[3′,2′:4,5]cyclopenta[1,2-c]isoquinoline-5,11(6H)-dione]
enzyme inhibitory activity Top1 (compound-induced DNA cleavage score) [1]: ++

Compound: CC[C@@]1(O)C(=O)OCc2c1cc1n(c2=O)Cc2cc3ccccc3nc2-1 [compound 1, camptothecin]
enzyme inhibitory activity Top1 (compound-induced DNA cleavage score) [1]: ++++

Compound: O=C1c2ccccc2-c2c1c1ccc([N+](=O)[O-])cc1c(=O)n2CCCn1ccnc1 [compound 7]
enzyme inhibitory activity Top1 (compound-induced DNA cleavage score) [1]: ++++
GI50 [2]: 0.016 µM
GI50 [3]: 0.19 µM
GI50 [4]: 0.015 µM
GI50 [5]: 2.17 µM
GI50 [6]: 0.274 µM
GI50 [7]: 0.864 µM
GI50 [8]: 0.017 µM
GI50 [9]: 0.012 µM

Compound: COc1cnc2c(c1)C(=O)c1c-2n(CCCn2ccnc2)c(=O)c2cc([N+](=O)[O-])ccc12 [compound 9]
zebrafish survival percentage ([10]; 0.1 μM in medium, 48 h after fertilization): 0 ± 0 %
zebrafish survival percentage ([10]; 0.1 μM in medium, 72 h after fertilization): 0 ± 0 %
zebrafish survival percentage ([10]; 0.1 μM in medium, 96 h after fertilization): 0 ± 0 %
zebrafish survival percentage ([10]; 0.1 μM in medium, 120 h after fertilization): 0 ± 0 %
zebrafish survival percentage ([10]; 1 μM in medium, 24 h after fertilization): 0 ± 0 %
zebrafish survival percentage ([10]; 1 μM in medium, 48 h after fertilization): 0 ± 0 %
zebrafish survival percentage ([10]; 1 μM in medium, 72 h after fertilization): 0 ± 0 %
zebrafish survival percentage ([10]; 1 μM in medium, 96 h after fertilization): 0 ± 0 %
zebrafish survival percentage ([10]; 1 μM in medium, 120 h after fertilization): 0 ± 0 %
zebrafish survival percentage ([10]; 10 μM in medium, 24 h after fertilization): 0 ± 0 %
zebrafish survival percentage ([10]; 10 μM in medium, 48 h after fertilization): 0 ± 0 %
zebrafish survival percentage ([10]; 10 μM in medium, 72 h after fertilization): 0 ± 0 %
zebrafish survival percentage ([10]; 10 μM in medium, 96 h after fertilization): 0 ± 0 %
zebrafish survival percentage ([10]; 10 μM in medium, 120 h after fertilization): 0 ± 0 %
lethality in zebrafish (comparison between compounds) [10]: significantly more lethal
GI50 [2]: < 0.01 µM
GI50 [3]: < 0.01 µM
GI50 [4]: < 0.01 µM
GI50 [5]: < 0.01 µM
GI50 [6]: < 0.01 µM
GI50 [7]: 0.025 µM
GI50 [8]: < 0.01 µM
GI50 [9]: < 0.01 µM
GI50 [11]: 0.021 µM

Compound: COc1cnc2c(c1)C(=O)c1c-2n(CCCN2CCOCC2)c(=O)c2cc([N+](=O)[O-])ccc12 [compound 10]
enzyme inhibitory activity Top1 (compound-induced DNA cleavage score) [1]: ++++
GI50 [2]: 0.035 µM
GI50 [3]: 0.051 µM
GI50 [4]: 0.043 µM
GI50 [5]: 0.02 µM
GI50 [6]: 0.05 µM
GI50 [7]: 0.11 µM
GI50 [8]: 0.04 µM
GI50 [9]: 0.04 µM

Compound: COc1cnc2c(c1)C(=O)c1c-2n(CCCN2CCOCC2)c(=O)c2cc(Cl)ccc12 [compound 16a, 3-Chloro-9-methoxy-6-(3-morpholinopropyl)-5H-pyrido[3′,2′:4,5]cyclopenta[1,2-c]isoquinoline-5,11(6H)-dione]
enzyme inhibitory activity Top1 (compound-induced DNA cleavage score) [1]: +++

Compound: COc1cnc2c(c1)C(=O)c1c-2n(CCCn2ccnc2)c(=O)c2cc(Cl)ccc12 [compound 16b, 3-Chloro-6-(3-(1H-Imidazol-1-yl)propyl)-9-methoxy-5H-pyrido[3′,2′:4,5]cyclopenta[1,2-c]isoquinoline-5,11(6H)-dione]
enzyme inhibitory activity Top1 (compound-induced DNA cleavage score) [1]: +++
lethality in zebrafish (comparison between compounds) [10]: lethality difference between them is not significant

Compound: COc1cnc2c(c1)C(=O)c1c-2n(CCCNC2=NCCS2)c(=O)c2cc(Cl)ccc12 [compound 16c, 3-Chloro-6-(3-((4,5-dihydrothiazol-2-yl)amino)propyl)-9-methoxy-5H-pyrido[3′,2′:4,5]cyclopenta[1,2-c]isoquinoline-5,11(6H)-dione]
enzyme inhibitory activity Top1 (compound-induced DNA cleavage score) [1]: ++

Compound: COc1cnc2c(c1)C(=O)c1c-2n(CCCN2CCC(O)CC2)c(=O)c2cc(Cl)ccc12 [compound 16d, 3-Chloro-6-(3-(4-hydroxypiperidin-1-yl)propyl)-9-methoxy-5H-pyrido[3′,2′:4,5]cyclopenta[1,2-c]isoquinoline-5,11(6H)-dione]
enzyme inhibitory activity Top1 (compound-induced DNA cleavage score) [1]: ++++

Compound: COc1cnc2c(c1)C(=O)c1c-2n(CCCN2CCN(C)CC2)c(=O)c2cc(Cl)ccc12 [compound 16j, 3-Chloro-9-methoxy-6-(3-(4-methylpiperazin-1-yl)propyl)-5H-pyrido[3′,2′:4,5]cyclopenta[1,2-c]isoquinoline-5,11(6H)-dione]
enzyme inhibitory activity Top1 (compound-induced DNA cleavage score) [1]: +

Compound: COc1cnc2c(c1)C(=O)c1c-2n(CCCn2ccnc2)c(=O)c2cc(F)ccc12 [compound 17b, 3-Fluoro-6-(3-(1H-imidazol-1-yl)propyl)-9-methoxy-5H-pyrido[3′,2′:4,5]-cyclopenta[1,2-c]isoquinoline-5,11(6H)-dione]
enzyme inhibitory activity Top1 (compound-induced DNA cleavage score) [1]: +++
lethality in zebrafish (comparison between compounds) [10]: lethality difference between them is not significant

Results, then the compound that gave them:

enzyme inhibitory activity Top1 (compound-induced DNA cleavage score) [1]: +++
Compound: COc1cnc2c(c1)C(=O)c1c-2n(CCCN2CCOCC2)c(=O)c2cc(F)ccc12 [17a, 3-Fluoro-9-methoxy-6-(3-morpholinopropyl)-5H-pyrido[3′,2′:4,5]cyclopenta[1,2-c]isoquinoline-5,11(6H)-dione]

enzyme inhibitory activity Top1 (compound-induced DNA cleavage score) [1]: ++
Compound: COc1cnc2c(c1)C(=O)c1c-2n(CCCNC2=NCCS2)c(=O)c2cc(F)ccc12 [17c, 3-Fluoro-6-(3-((4,5-dihydrothiazol-2-yl)amino)propyl)-9-methoxy-5H-pyrido[3′,2′:4,5]cyclopenta[1,2-c]isoquinoline-5,11(6H)-dione]

enzyme inhibitory activity Top1 (compound-induced DNA cleavage score) [1]: +
Compound: COc1cnc2c(c1)C(=O)c1c-2n(CCCN2CCC(O)CC2)c(=O)c2cc(F)ccc12 [17d, 3-Fluoro-6-(3-(4-hydroxypiperidin-1-yl)propyl)-9-methoxy-5H-pyrido[3′,2′:4,5]cyclopenta[1,2-c]isoquinoline-5,11(6H)-dione]

enzyme inhibitory activity Top1 (compound-induced DNA cleavage score) [1]: +
Compound: COc1cnc2c(c1)C(=O)c1c-2n(CCCN2CCNCC2)c(=O)c2cc(F)ccc12 [17e, 3-Fluoro-9-methoxy-6-(3-(piperazin-1-yl)propyl)-5H-pyrido[3′,2′:4,5]cyclopenta[1,2-c]isoquinoline-5,11(6H)-dione]

enzyme inhibitory activity Top1 (compound-induced DNA cleavage score) [1]: ++
Compound: COc1cnc2c(c1)C(=O)c1c-2n(CCCNC(C)C)c(=O)c2cc(F)ccc12 [17f, 3-Fluoro-6-(3-(isopropylamino)propyl)-9-methoxy-5H-pyrido[3′,2′:4,5]cyclopenta[1,2-c]isoquinoline-5,11(6H)-dione]

enzyme inhibitory activity Top1 (compound-induced DNA cleavage score) [1]: +
Compound: CNCCCn1c2c(c3ccc(F)cc3c1=O)C(=O)c1cc(OC)cnc1-2 [17g, 3-Fluoro-9-methoxy-6-(3-(methylamino)propyl)-5H-pyrido[3′,2′:4,5]cyclopenta[1,2-c]isoquinoline-5,11(6H)-dione]

enzyme inhibitory activity Top1 (compound-induced DNA cleavage score) [1]: ++
Compound: CCNCCCn1c2c(c3ccc(F)cc3c1=O)C(=O)c1cc(OC)cnc1-2 [17h, 6-(3-(Ethylamino)propyl)-3-fluoro-9-methoxy-5H-pyrido[3′,2′:4,5]cyclopenta[1,2-c]isoquinoline-5,11(6H)-dione]

enzyme inhibitory activity Top1 (compound-induced DNA cleavage score) [1]: +++
Compound: COc1cnc2c(c1)C(=O)c1c-2n(CCCN2CCCC2)c(=O)c2cc(F)ccc12 [17i, 3-Fluoro-9-methoxy-6-(3-(pyrrolidin-1-yl)propyl)-5H-pyrido[3′,2′:4,5]cyclopenta[1,2-c]isoquinoline-5,11(6H)-dione]
